Laboratory results taken from patent US9873680B2 (Gilead Sciences, Inc., priority 2014, dated 2018).
Read-outs that look alike come from different tables or passages of the source.

Columns and labels:
HIV-IIIb = experiment: Test A: Antiviral Assay in MT4 Cells; assay type: cell-based, HIV-1; conditions: for inhibition at 0.2 µM: 0.2 μM drug concentration
Procedure, shortened: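 MT-4 cells were preinfected with HIV-IIIb […]. Cell viability, as protection from viral cytopathic effect, was read by CellTiter-Glo chemiluminescence.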

[1] = Test B: Cytotoxicity Assay; assay type: cell-based; conditions: human, uninfected MT-4 cells, CellTiter-Glo
Experimental: Test B: Cytotoxicity Assay Compound cytotoxicity and the corresponding CC50 values was determined using the same protocol as described in the antiviral assay (Test A) except that uninfected cells were used.

[2] = Human immunodeficiency virus 1, MT4, 120 h, MT-4 cells infected with HIV-IIIb, 5 days, values normalized to 100%, average over time, read-out: % inhibition at 0.2 μM (percent inhibition of virus-induced cell killing)

Compound	inhibition at 0.2 µM (HIV-IIIb; [2]) [%]	CC50 at 5 days [1] [µM]	inhibition at 0.2 µM (HIV-IIIb; Human immunodeficiency virus 1, IIIB, MT4, comparison with previously published compounds, read-out: Response at 0.2 μM (percent inhibition of virus-induced cell killing)) [%]	inhibition at 2 µM (HIV-IIIb; Human immunodeficiency virus 1, IIIB, MT4, 2 μM drug concentration, comparison with previously published compounds, read-out: Response at 2 μM (percent inhibition of virus-induced cell killing)) [%]
Cc1c(-c2ccc(C#CC3(O)COC3)nc2[C@H](Cc2cc(F)cc(F)c2)NC(=O)Cn2nc(C(F)(F)F)c3c2C(F)(F)[C@@H]2C[C@H]32)ccc2n[nH]c(=O)n12 [Compound 21, 2-((3bS,4aR)-5,5-difluoro-3-(trifluoromethyl)-3b,4,4a,5-tetrahydro-1H-cyclopropa[3,4]cyclopenta[1,2-c]pyrazol-1-yl)-N—((S)-2-(3,5-difluorophenyl)-1-(6-((3-hydroxyoxetan-3-yl)ethynyl)-3-(5-methyl-3-oxo-2,3-dihydro-[1,2,4]triazolo[4,3-a]pyridin-6-yl)pyridin-2-yl)ethyl)acetamide]	100	11.7		
Cn1nc(NS(C)(=O)=O)c2c(Cl)ccc(-c3ccc(C#CC4CNCCO4)nc3[C@H](Cc3cc(F)cc(F)c3)NC(=O)Cn3nc(C(F)F)c4c3C(F)(F)[C@@H]3C[C@H]43)c21 (stereo partly drawn) [Compound 68, N-((1S)-1-(3-(4-chloro-1-methyl-3-(methylsulfonamido)-1H-indazol-7-yl)-6-(morpholin-2-ylethynyl)pyridin-2-yl)-2-(3,5-difluorophenyl)ethyl)-2-((3bS,4aR)-3-(difluoromethyl)-5,5-difluoro-3b,4,4a,5-tetrahydro-1H-cyclopropa[3,4]cyclopenta[1,2-c]pyrazol-1-yl)acetamide]	100	7.51		
Cn1nc(NS(C)(=O)=O)c2c(Cl)ccc(-c3ccc(C#CC4(O)CC4)nc3[C@H](Cc3cc(F)cc(F)c3)NC(=O)Cn3nc(C(F)(F)F)c4c3C(F)(F)[C@@H]3C[C@H]43)c21 [Compound 64, N—((S)-1-(3-(4-chloro-1-methyl-3-(methylsulfonamido)-1H-indazol-7-yl)-6-((1-hydroxycyclopropyl)ethynyl)pyridin-2-yl)-2-(3,5-difluorophenyl)ethyl)-2-((3bS,4aR)-5,5-difluoro-3-(trifluoromethyl)-3b,4,4a,5-tetrahydro-1H-cyclopropa[3,4]cyclopenta[1,2-c]pyrazol-1-yl)acetamide]	98	16.1		
Cn1nc(NS(C)(=O)=O)c2cccc(-c3ccc(C#CC4(O)CNC4)nc3[C@H](Cc3cc(F)cc(F)c3)NC(=O)Cn3nc(C(F)(F)F)c4c3C(F)(F)[C@@H]3C[C@H]43)c21 [Compound 22C, 2-((3bS,4aR)-5,5-difluoro-3-(trifluoromethyl)-3b,4,4a,5-tetrahydro-1H-cyclopropa[3,4]cyclopenta[1,2-c]pyrazol-1-yl)-N—((S)-2-(3,5-difluorophenyl)-1-(6-((3-hydroxyazetidin-3-yl)ethynyl)-3-(1-methyl-3-(methylsulfonamido)-1H-indazol-7-yl)pyridin-2-yl)ethyl)acetamide]	93	17.7		
Cn1nc(NS(C)(=O)=O)c2c(Cl)ccc(-c3ccc(C#CC(O)C4CNC4)nc3[C@H](Cc3cc(F)cc(F)c3)NC(=O)Cn3nc(C(F)(F)F)c4c3C(F)(F)[C@@H]3C[C@H]43)c21 (stereo partly drawn) [Compound 65, N-((1S)-1-(6-(3-(azetidin-3-yl)-3-hydroxyprop-1-yn-1-yl)-3-(4-chloro-1-methyl-3-(methylsulfonamido)-1H-indazol-7-yl)pyridin-2-yl)-2-(3,5-difluorophenyl)ethyl)-2-((3bS,4aR)-5,5-difluoro-3-(trifluoromethyl)-3b,4,4a,5-tetrahydro-1H-cyclopropa[3,4]cyclopenta[1,2-c]pyrazol-1-yl)acetamide]	37	19.3		
Cn1nc(NS(C)(=O)=O)c2c(Cl)ccc(-c3ccc(C#CC4(O)CC4)nc3[C@H](Cc3cc(F)cc(F)c3)NC(=O)Cn3nc(C(F)F)c4c3C(F)(F)[C@@H]3C[C@H]43)c21 [Compound 62B, N—((S)-1-(3-(4-chloro-1-methyl-3-(methylsulfonamido)-1H-indazol-7-yl)-6-((1-hydroxycyclopropyl)ethynyl)pyridin-2-yl)-2-(3,5-difluorophenyl)ethyl)-2-((3bS,4aR)-3-(difluoromethyl)-5,5-difluoro-3b,4,4a,5-tetrahydro-1H-cyclopropa[3,4]cyclopenta[1,2-c]pyrazol-1-yl)acetamide]	93	14.9		
Cn1nc(NS(C)(=O)=O)c2c(Cl)ccc(-c3ccc(C#CC4(O)CCNC4)nc3[C@H](Cc3cc(F)cc(F)c3)NC(=O)Cn3nc(C(F)(F)F)c4c3C(F)(F)[C@@H]3C[C@H]43)c21 (stereo partly drawn) [Compound 58, N-((1S)-1-(3-(4-chloro-1-methyl-3-(methylsulfonamido)-1H-indazol-7-yl)-6-((3-hydroxypyrrolidin-3-yl)ethynyl)pyridin-2-yl)-2-(3,5-difluorophenyl)ethyl)-2-((3bS,4aR)-5,5-difluoro-3-(trifluoromethyl)-3b,4,4a,5-tetrahydro-1H-cyclopropa[3,4]cyclopenta[1,2-c]pyrazol-1-yl)acetamide]	91	5.19		
O=C(Cn1nc(C(F)F)c2c1C(F)(F)CCC2(F)F)N[C@@H](Cc1cc(F)cc(F)c1)c1ncc(C#CC2CC2)cc1-c1ccc2c(c1)C(=O)NC2 [Compound 2G, (S)—N-(1-(5-(cyclopropylethynyl)-3-(3-oxoisoindolin-5-yl)pyridin-2-yl)-2-(3,5-difluorophenyl)ethyl)-2-(3-(difluoromethyl)-4,4,7,7-tetrafluoro-4,5,6,7-tetrahydro-1H-indazol-1-yl)acetamide]	0	38.4	0	6
Cn1nc(NS(C)(=O)=O)c2c(Cl)ccc(-c3cc(-c4cnn(C5COC5)c4)cnc3[C@H](Cc3cc(F)cc(F)c3)NC(=O)Cn3nc(C(F)F)c4c3C(F)(F)[C@@H]3C[C@H]43)c21 [Compound 93D, N—((S)-1-(3-(4-chloro-1-methyl-3-(methylsulfonamido)-1H-indazol-7-yl)-5-(1-(oxetan-3-yl)-1H-pyrazol-4-yl)pyridin-2-yl)-2-(3,5-difluorophenyl)ethyl)-2-((3bS,4aR)-3-(difluoromethyl)-5,5-difluoro-3b,4,4a,5-tetrahydro-1H-cyclopropa[3,4]cyclopenta[1,2-c]pyrazol-1-yl)acetamide]	93	18.3		
Cn1nc(NS(C)(=O)=O)c2c(Cl)ccc(-c3ccc(C#CC4(O)CCC4)nc3[C@H](Cc3cc(F)cc(F)c3)NC(=O)Cn3nc(C(F)F)c4c3C(F)(F)[C@@H]3C[C@H]43)c21 [Compound 69, N—((S)-1-(3-(4-chloro-1-methyl-3-(methylsulfonamido)-1H-indazol-7-yl)-6-((1-hydroxycyclobutyl)ethynyl)pyridin-2-yl)-2-(3,5-difluorophenyl)ethyl)-2-((3bS,4aR)-3-(difluoromethyl)-5,5-difluoro-3b,4,4a,5-tetrahydro-1H-cyclopropa[3,4]cyclopenta[1,2-c]pyrazol-1-yl)acetamide]	96	13.6		
O=C(Cn1nc(C(F)(F)F)c2c1C(F)(F)[C@@H]1C[C@H]21)N[C@@H](Cc1cc(F)cc(F)c1)c1nc(C#Cc2ccc(=O)[nH]c2)ccc1-c1ccc2c(c1)C(=O)NC2 [Compound 12, 2-((3bS,4aR)-5,5-difluoro-3-(trifluoromethyl)-3b,4,4a,5-tetrahydro-1H-cyclopropa[3,4]cyclopenta[1,2-c]pyrazol-1-yl)-N—((S)-2-(3,5-difluorophenyl)-1-(6-((6-oxo-1,6-dihydropyridin-3-yl)ethynyl)-3-(3-oxoisoindolin-5-yl)pyridin-2-yl)ethyl)acetamide]	70	7.7		
Cn1nc(NS(C)(=O)=O)c2c(Cl)ccc(-c3ccc(C#CC4(O)CO[C@H]5OCC[C@H]54)nc3[C@H](Cc3cc(F)cc(F)c3)NC(=O)Cn3nc(C(F)F)c4c3C(F)(F)[C@@H]3C[C@H]43)c21 (stereo partly drawn) [Compound 52, N-((1S)-1-(3-(4-chloro-1-methyl-3-(methylsulfonamido)-1H-indazol-7-yl)-6-(((3aS,6aR)-3-hydroxyhexahydrofuro[2,3-b]furan-3-yl)ethynyl)pyridin-2-yl)-2-(3,5-difluorophenyl)ethyl)-2-((3bS,4aR)-3-(difluoromethyl)-5,5-difluoro-3b,4,4a,5-tetrahydro-1H-cyclopropa[3,4]cyclopenta[1,2-c]pyrazol-1-yl)acetamide]	96	17.1		
Cn1nc(N)c2cccc(-c3ccc(C#CC4(O)CCOCC4)nc3[C@H](Cc3cc(F)cc(F)c3)NC(=O)Cn3nc(C(F)(F)F)c4c3C(F)(F)[C@@H]3C[C@H]43)c21 [Compound 27, N—((S)-1-(3-(3-amino-1-methyl-1H-indazol-7-yl)-6-((4-hydroxytetrahydro-2H-pyran-4-yl)ethynyl)pyridin-2-yl)-2-(3,5-difluorophenyl)ethyl)-2-((3bS,4aR)-5,5-difluoro-3-(trifluoromethyl)-3b,4,4a,5-tetrahydro-1H-cyclopropa[3,4]cyclopenta[1,2-c]pyrazol-1-yl)acetamide]	92	15.8		
Cn1nc(NS(C)(=O)=O)c2c(Cl)ccc(-c3ccc(C#CC4(O)CCOC4)nc3[C@H](Cc3cc(F)cc(F)c3)NC(=O)Cn3nc(C(F)(F)F)c4c3C(F)(F)[C@@H]3C[C@H]43)c21 (stereo partly drawn) [Compound 46, N-((1S)-1-(3-(4-chloro-1-methyl-3-(methylsulfonamido)-1H-indazol-7-yl)-6-((3-hydroxytetrahydrofuran-3-yl)ethynyl)pyridin-2-yl)-2-(3,5-difluorophenyl)ethyl)-2-((3bS,4aR)-5,5-difluoro-3-(trifluoromethyl)-3b,4,4a,5-tetrahydro-1H-cyclopropa[3,4]cyclopenta[1,2-c]pyrazol-1-yl)acetamide]	96	17.6		
